Assay: Theaflavins feeding model (optical density)
Assay type: physicochemical
Protocol: A 3 mg/mL aqueous solution of theaflavins was prepared at 80 degrees Celsius. 0.625 mg/mL aqueous solutions of whey protein isolate and iota carrageenan were prepared and all three solutions combined to yield a solution with 1.5 mg/mL theaflavins, 0.156 mg/mL whey protein isolate and 0.156 mg/mL iota carrageenan. The following feeding programme was used with the 3 mg/mL aqueous solution of theaflavins being either at ambient temperature (reference “Procedure B”) or at 80 degrees Celsius (reference “Procedure A”) when combined with the ambient temperature 0.625 mg/mL aqueous solutions of whey protein isolate and iota carrageenan:
TF+WPI/IC: 25 mL whey protein isolate solution and 25 mL iota carrageenan solution are premixed and added to 50 mL theaflavins solution. TF+IC: 25 mL iota carrageenan solution is added to 50 mL of theaflavins solution and 25 mL of deionised water added. TF+WPI: 25 mL whey protein isolate solution is added to 50 mL of theaflavins solution and 25 mL of deionised water added. TFWPI+IC: 25 mL whey protein isolate solution is added to 50 mL theaflavins solution, and then 25 mL iota carrageenan solution is added after 10 minutes. […]
All the samples were stored at 4 degrees Celsius for 24 hours in order to equilibrate the tea creaming process before measurement of turbidity at 600 nm with a Safire2™ microplate reader (Tecan Group Ltd.).

- Effect on solubility of theaflavin: decreases the solubility of theaflavin
Substance: Iota carrageenan
